Here are results for ten compounds from US12247004B2, “2-amino-N-(amino-oxo-aryl-lambda6-sulfanylidene)acetamide compounds and their therapeutic use” (Oxford Drug Design Limited, priority 2019, dated 2025).

Series [1] has as its target Leucyl-tRNA synthetase (LeuRS) (Escherichia coli (strain K12), UniProt P07813). In words: Leucyl-tRNA synthetase enzyme inhibition (AMP-Glo; single point % inhibition at 100 μM and IC50). In kind it is biochemical.
Series [2] is described as follows: Human cell viability / cytotoxicity (CellTiter-Glo, 24 hours). In kind it is cell-based. The conditions noted are these: human, HepG2 cells (ATCC HB-8065); HepG2 ATCC HB-8065, 24 hours; read-out: Cytotoxicity in HepG2 ATCC HB-8065 Cell Line, IC50. The protocol:
Study 3—Human Cell Viability
Compounds were assessed for potential non-specific cytotoxic effects against a human hepatic cell line (HepG2 ATCC HB-8065). 96-well plates were seeded with HepG2 cells in concentration of 15,000 cells per well in 100 μL of MEM growth media completed with 1% NEAA and 1% sodium pyruvate. Border wells were filled with 100 μL of sterile PBS. Two days upon cells incubation, the compounds were added. Compound dilutions were prepared in 96-well V-bottom plate in pure DMSO. Growth media from 5 plates were aspirated and replaced with 98.7 μL of fresh growth media. 1.28 μL of compounds prepared in V-bottom plates were transferred with multichannel pipette into test plates (78.1× dilution). Final DMSO concentration was 1.28% per well. In control wells, 1.28 μL of DMSO was added in 98.7 μL of media. Compounds were tested in duplicates. Cells were incubated with compounds for 24 hours when cell viability was assessed by measuring ATP levels. ATP levels were measured by adding 50 μL of CellTiter-Glo reagent to each well and after 5 minutes of incubation luminescence was measured with SpectraMax i3. The potential effect of tested compounds on cell viability was determined by comparing the signal obtained in presence of different concentrations of the compounds with those obtained in the presence of DMSO only. The potential effects were then calculated and presented as IC50 values (μg/mL).

Series [3] has as its system bacteria (ATCC reference strains). Put plainly: Antibacterial activity, MIC by broth micro-dilution (CLSI). (Dilution methods test growth across graded concentrations, often in twofold steps.)
Where [4] appears, read: E. coli LeuRS, read-out: Enzyme Inhibition - IC50, E. coli LeuRS.
The mark [5] stands for this setting: Acinetobacter baumannii, read-out: Antibacterial Activity (MIC), E = A. baumannii B1931.
The mark [6] stands for this setting: Escherichia coli, ATCC25922, read-out: Antibacterial Activity (MIC), A = E. coli ATCC 25922.
The mark [7] stands for this setting: Escherichia coli, BAA2469, read-out: Antibacterial Activity (MIC), G = E. coli BAA-2469.
[8] abbreviates: Haemophilus influenzae, ATCC49247, read-out: Antibacterial Activity (MIC), F = H. influenzae ATCC 49247.
Where [9] appears, read: Klebsiella pneumoniae, ATCC700603, read-out: Antibacterial Activity (MIC), C = K. pneumoniae ATCC 700603.
Setting [10] is: Pseudomonas aeruginosa, ATCC27853, read-out: Antibacterial Activity (MIC), D = P. aeruginosa ATCC 27853.
The mark [11] stands for this setting: Enterobacter cloacae, read-out: Antibacterial Activity (MIC), B = Enterobacter cloacae B1966.

Values after ≈ are worked out from the molar mass of the structure shown. Where two headings read alike, the source gives them in different places. Some results are limits rather than exact numbers.

Sequence of Leucyl-tRNA synthetase (LeuRS) (P07813 whole entry, looked up): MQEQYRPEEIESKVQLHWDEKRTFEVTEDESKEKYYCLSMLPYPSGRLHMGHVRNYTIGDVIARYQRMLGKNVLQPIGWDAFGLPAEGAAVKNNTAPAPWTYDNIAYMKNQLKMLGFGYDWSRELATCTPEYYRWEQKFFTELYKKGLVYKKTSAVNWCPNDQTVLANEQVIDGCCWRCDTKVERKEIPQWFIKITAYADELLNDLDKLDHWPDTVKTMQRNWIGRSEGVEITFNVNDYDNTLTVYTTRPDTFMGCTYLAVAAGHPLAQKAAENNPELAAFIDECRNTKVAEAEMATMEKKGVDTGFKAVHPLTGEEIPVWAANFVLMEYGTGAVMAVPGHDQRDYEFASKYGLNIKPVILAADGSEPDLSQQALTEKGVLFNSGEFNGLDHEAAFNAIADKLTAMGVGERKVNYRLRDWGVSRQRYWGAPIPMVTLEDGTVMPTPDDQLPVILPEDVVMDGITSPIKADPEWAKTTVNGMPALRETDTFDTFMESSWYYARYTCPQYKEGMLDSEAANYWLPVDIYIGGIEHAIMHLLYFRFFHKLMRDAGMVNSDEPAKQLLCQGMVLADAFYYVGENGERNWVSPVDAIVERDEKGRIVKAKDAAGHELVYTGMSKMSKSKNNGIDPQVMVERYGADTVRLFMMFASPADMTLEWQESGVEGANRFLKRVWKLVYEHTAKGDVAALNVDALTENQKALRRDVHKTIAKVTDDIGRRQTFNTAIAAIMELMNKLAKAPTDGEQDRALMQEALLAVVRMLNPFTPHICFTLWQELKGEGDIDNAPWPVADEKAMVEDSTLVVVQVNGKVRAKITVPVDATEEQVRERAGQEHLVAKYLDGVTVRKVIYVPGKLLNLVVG

Usually IC50 stands for the concentration needed to halve the response being measured. Turning to `CC(C)C[C@H](N)C(=O)N=S(N)(=O)c1csc2ccsc12` (some centres unmarked) [ANASIA-100], the IC50 in series [1] (setting [4]) was found to be 32.8 nM. For the same compound, the IC50 at 24 h in series [2] was more than 64 µg/mL. Besides, the MIC in series [3] (setting [5]) is 32 µg/mL (≈ 96.5 µM); in series [3] (setting [6]), 0.5 µg/mL (≈ 1.51 µM); in series [3] (setting [7]), 4 µg/mL (≈ 12.1 µM); in series [3] (setting [8]) it was 0.5 µg/mL (≈ 1.51 µM); in series [3] (setting [9]), 64 µg/mL (≈ 193 µM); in series [3] (setting [10]) it was more than 64 µg/mL.

The compound `CC(C)C[C@H](N)C(=O)N=[S@](N)(=O)c1ccsc1.Cl` [ANASIA-008-1] had an IC50 in series [1] of 30.6 nM. In addition, the IC50 at 24 h in series [2] is more than 64 µg/mL. Moreover, the MIC amounted to 32 µg/mL in series [3] (setting [5]); 8 µg/mL in series [3] (setting [11]); 2 µg/mL in series [3] (setting [6]); 4 µg/mL in series [3] (setting [8]); 8 µg/mL in series [3] (setting [9]); 32 µg/mL in series [3] (setting [10]).

In turn, `CC(C)C[C@H](N)C(=O)N=[S@](N)(=O)c1sccc1Cl.Cl` [ANASIA-012-1] showed an IC50 in series [1] of 87.4 nM. The half-inhibitory concentration (IC50) at 24 h in series [2] was more than 64 µg/mL. Also, the MIC in series [3] (setting [5]) stood at 64 µg/mL; in series [3] (setting [11]), 32 µg/mL; in series [3] (setting [6]), 4 µg/mL; in series [3] (setting [7]), 16 µg/mL; in series [3] (setting [8]), 8 µg/mL; in series [3] (setting [9]), 64 µg/mL. Moreover, in series [3] (setting [10]), the MIC is more than 64 µg/mL.

In turn, `CC(C)C[C@H](N)C(=O)N=[S@](N)(=O)c1cccc(Cl)c1Cl.Cl` [ANASIA-046-1] registered an IC50 in series [1] of 960 nM. In series [2], the IC50 at 24 h was more than 64 µg/mL. In addition, the MIC was more than 64 µg/mL in series [3] (setting [5]); more than 64 µg/mL in series [3] (setting [11]); more than 64 µg/mL in series [3] (setting [6]); 64 µg/mL in series [3] (setting [8]); more than 64 µg/mL in series [3] (setting [9]); more than 64 µg/mL in series [3] (setting [10]).

`CC(C)C[C@H](N)C(=O)N=S(N)(=O)c1cccnc1` (some centres unmarked) [ANASIA-006]: the IC50 in series [1] (setting [4]) was found to be 708 nM. The IC50 at 24 h in series [2] was more than 64 µg/mL. The MIC in series [3] (setting [5]) was more than 64 µg/mL; in series [3] (setting [11]), more than 64 µg/mL; in series [3] (setting [6]), 64 µg/mL (≈ 237 µM); in series [3] (setting [8]), more than 64 µg/mL; in series [3] (setting [9]), more than 64 µg/mL; in series [3] (setting [10]), more than 64 µg/mL.

In series [1], `CC(C)C[C@H](N)C(=O)N=[S@@](N)(=O)c1ccccc1F.Cl` [ANASIA-087-1] gave a half-maximal inhibitory concentration (IC50) of 289 nM. In series [2], the IC50 at 24 h was more than 64 µg/mL. The MIC in series [3] (setting [5]) was more than 64 µg/mL; in series [3] (setting [11]), 64 µg/mL; in series [3] (setting [6]) it was 11.3 µg/mL; in series [3] (setting [8]) it was 32 µg/mL; in series [3] (setting [9]), more than 64 µg/mL; in series [3] (setting [10]), more than 64 µg/mL.

Turning to `COc1ccsc1[S@@](N)(=O)=NC(=O)[C@@H](N)CC(C)C.Cl` [ANASIA-108-1], the IC50 in series [1] came out at 127 nM. Besides, the IC50 at 24 h in series [2] was more than 64 µg/mL. Further, the MIC in series [3] (setting [5]) is more than 64 µg/mL; in series [3] (setting [6]), 8 µg/mL; in series [3] (setting [7]), 16 µg/mL; in series [3] (setting [8]) it was 32 µg/mL; in series [3] (setting [9]), 64 µg/mL; in series [3] (setting [10]), 64 µg/mL.

Take `Cc1cccc([S@](N)(=O)=NC(=O)[C@@H](N)CC(C)C)c1` [ANASIA-005-2]: the IC50 in series [1] (setting [4]) worked out at 151 nM. The IC50 at 24 h in series [2] was more than 64 µg/mL. Besides, the MIC was more than 64 µg/mL in series [3] (setting [5]); 64 µg/mL (≈ 226 µM) in series [3] (setting [11]); 8 µg/mL (≈ 28.2 µM) in series [3] (setting [6]); 32 µg/mL (≈ 113 µM) in series [3] (setting [7]); 16 µg/mL (≈ 56.5 µM) in series [3] (setting [8]); more than 64 µg/mL in series [3] (setting [9]). In addition, in series [3] (setting [10]), the MIC was more than 64 µg/mL.

`CC(C)C[C@H](N)C(=O)N=[S@](N)(=O)c1cccc(Oc2ccc(Cl)cc2)c1.Cl` [ANASIA-047-1] registered an IC50 in series [1] of 76.4 nM. Moreover, the IC50 at 24 h in series [2] stood at 46.5 µg/mL. The MIC is more than 64 µg/mL in series [3] (setting [5]); more than 64 µg/mL in series [3] (setting [11]); more than 64 µg/mL in series [3] (setting [6]); 64 µg/mL in series [3] (setting [8]); more than 64 µg/mL in series [3] (setting [9]); more than 64 µg/mL in series [3] (setting [10]).

As for `CC(C)C[C@H](N)C(=O)N=[S@](N)(=O)c1cccc(C#N)c1.Cl` [ANASIA-041-1], the IC50 in series [1] came to 17.7 nM. Moreover, the IC50 at 24 h in series [2] was more than 64 µg/mL. In addition, the MIC in series [3] (setting [5]) was more than 64 µg/mL; in series [3] (setting [11]), more than 64 µg/mL; in series [3] (setting [6]), 5.66 µg/mL; in series [3] (setting [7]) it was 64 µg/mL; in series [3] (setting [8]), 2.83 µg/mL; in series [3] (setting [9]) it was more than 64 µg/mL. The MIC in series [3] (setting [10]) is more than 64 µg/mL.
